# Data published in paper PMC7290078, “Agonist bias and agonist‐dependent antagonism at corticotrophin releasing factor receptors” (Pharmacology Research & Perspectives, 2020).
# No end group written: not given here.
# Legend:
# [1] = target: T1, CRF1 receptor (hCRF1α) (Homo sapiens, UniProt P34998); experiment: cAMP accumulation (LANCE) in Cos7 cells transfected with hCRF1α, agonist stimulation; format: cell-based
# T1 construct: host or cells: Cos7 cells, transient transfection (PEI), pcDNA3.0/3.1 vector
# T1 sequence (P34998 24-415): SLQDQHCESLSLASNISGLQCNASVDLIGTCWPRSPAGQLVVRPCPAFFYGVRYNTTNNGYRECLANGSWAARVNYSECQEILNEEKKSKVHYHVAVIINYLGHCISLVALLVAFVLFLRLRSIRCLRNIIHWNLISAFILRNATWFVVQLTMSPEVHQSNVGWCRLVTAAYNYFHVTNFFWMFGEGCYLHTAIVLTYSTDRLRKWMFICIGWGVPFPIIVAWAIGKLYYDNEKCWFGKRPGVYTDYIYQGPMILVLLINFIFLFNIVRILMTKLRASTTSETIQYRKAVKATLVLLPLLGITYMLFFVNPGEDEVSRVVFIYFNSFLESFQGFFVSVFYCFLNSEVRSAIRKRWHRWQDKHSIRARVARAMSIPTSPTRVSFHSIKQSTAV
# Source text: (§1) Plasmids containing hCRF1α and hCRF2α (GenBank accession numbers AY457172 and AY449734) were obtained from the cDNA Resource Centre (Bloomsburg University) and are referred to as CRF1 and CRF2 in this manuscript. Hemagglutinin (HA) epitope‐tagged human Calcitonin (CT) receptor (CT(a) splice variant) and myc‐tagged human RAMP1 were used as described previously. ^27 HA‐tagged human calcitonin receptor‐like receptor (CLR), N‐terminal FLAG‐tagged human RAMP3 and N‐terminal myc‐tagged human RAMP3 were a gift from Professor David Poyner (Aston University) and Professor Patrick Sexton (Monash University), respectively. N‐terminal FLAG‐tagged human RAMP2 was used as described previously. ^28 All receptors and RAMPs were cloned in pcDNA3.0 or pcDNA3.1 plasmid vectors. All plasmid inserts were sequenced at the Centre for Genomics, Proteomics and Metabolomics (University of Auckland) and the sequences were verified prior to use.
# Cos7, HEK‐293S, and HEK‐293T cells were cultured as described previously. ^28 , ^29 Cos7 cells were originally supplied by the ATCC to Associate Professor Nigel Birch (University of Auckland). HEK‐293S cells were a gift from Professor David Poyner (Aston University) and HEK‐293T cells a gift from Professor John Taylor (University of Auckland). Briefly, all cell lines were cultured in Dulbecco's Modified Eagle Medium (DMEM) supplemented with 8% heat inactivated fetal bovine serum (FBS) and maintained in a humidified incubator at 37°C with 5% CO2. For transfection, cells were counted (Countess CounterTM; Life Technologies) and plated at a density of 20 000 cells per well in 96‐well plates. The cells were transiently transfected 48 hours prior to assaying using polyethylenimine (PEI), as described previously. ^28 , ^29 In all experiments a total of 0.25 μg DNA was transfected per well. In the majority of experiments 0.25 μg DNA of receptor‐containing plasmid or the pcDNA3.1 plasmid without an insert was used. For experiments involving RAMPs, 0.125 μg of receptor DNA and 0.125 μg of RAMP‐containing plasmid DNA were transfected to give a 1:1 ratio of receptor to RAMP. […]
# cAMP accumulation in Cos7 cells transfected with hCRF1α or hCRF2α receptors was measured using the LANCE cAMP detection assay kit (PerkinElmer Life and Analytical Sciences) as described previously. ^30 Briefly, culture media was removed and replaced with DMEM containing 0.1% bovine albumin serum (BSA) and 1 mmol/L 3‐isobutyl‐1‐methylxanthine (IBMX) for 30 minutes at 37°C. […] Samples were shaken for 15 minutes before 5 µL cell lysate was transferred to a white 384‐well optiplate and processed for cAMP quantification as described previously. ^31 Samples were read using an Envision plate reader (PerkinElmer). cAMP concentrations were determined from a standard curve generated in duplicate. […]
# [2] = target: T1, CRF1 receptor (hCRF1α); experiment: ERK1/2 phosphorylation (AlphaLISA Surefire Ultra) in Cos7 cells transfected with hCRF1α; format: cell-based
# Source text: as §1, with “All plasmid inserts were sequenced at the Centre for Genomics, Proteomics and Metabolomics (University of Auckland) and the sequences were verified prior to use.” left out
# Cos7, HEK‐293S, and HEK‐293T cells were cultured as described previously. ^28 , ^29 Cos7 cells were originally supplied by the ATCC to Associate Professor Nigel Birch (University of Auckland). […] For transfection, cells were counted (Countess CounterTM; Life Technologies) and plated at a density of 20 000 cells per well in 96‐well plates. […]
# The AlphaLISA Surefire Ultra extracellular signal‐regulated kinase 1/2 (ERK1/2) phosphorylation (pERK1/2) assay kit (PerkinElmer Life and Analytical Sciences) was used to measure pERK1/2 in cell lysates after agonist stimulation. […] Samples were read using an Envision plate reader (PerkinElmer). […]
Substance,"EC50 ([1]; cAMP, hCRF1α, Cos7, 15 min at 37°C, 1 mmol/L IBMX, 1 pmol/L to 1 µmol/L agonist, mean ± SEM, n = 5) [µM]","EC50 ([2]; pERK1/2, hCRF1α, Cos7, 7 min at 37°C, 1 pmol/L to 1 µmol/L agonist, mean ± SEM, n = 5) [µM]",concentration‐dependent increase in cAMP ([1]; CRF1 receptor),concentration‐dependent increase in pERK1/2 ([2]; CRF1 receptor)
DNPSLSIDLTFHLLRTLLELARTQSQRERAEQNRIIFDSV-NH2 [UCN1],0.000107,0.0229,,
IVLSLDVPIGLLQILLEQARARAAREQATTNARILARVGHC-NH2 (C-terminus assumed) [UCN2],,,not UCN2 and UCN3 exhibited a concentration‐dependent increase,not UCN2 and UCN3 exhibited a concentration‐dependent increase
